Data taken from the supplement of paper PMC10307832.

Tests used:
Experiment in all cases: relative viability (nuclei count vs DMSO), 5 days (fraction); higher = more cells survive
Irinotecan + Olaparib = compound: CCc1c2c(nc3ccc(OC(=O)N4CCC(N5CCCCC5)CC4)cc13)-c1cc3c(c(=O)n1C2)COC(=O)[C@]3(O)CC [Irinotecan] + O=C(c1cc(Cc2n[nH]c(=O)c3ccccc23)ccc1F)N1CCN(C(=O)C2CC2)CC1 [Olaparib] (partner 8 µM)
In short: (§1)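 Relative viability is defined as nuclei in treated wells over nuclei in vehicle wells. Duplicate plates were run and medians reported. Lung cancer cell lines in 1536-well plates were dosed by pin tool one day after seeding, with one drug or with a fixed anchor-drug dose plus five library-drug doses (not always all listed) in √10 steps, and nuclei were counted after 5 days.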

Irinotecan + Pemetrexed = compound: CCc1c2c(nc3ccc(OC(=O)N4CCC(N5CCCCC5)CC4)cc13)-c1cc3c(c(=O)n1C2)COC(=O)[C@]3(O)CC [Irinotecan] + Nc1nc2[nH]cc(CCc3ccc(C(=O)N[C@@H](CCC(=O)O)C(=O)O)cc3)c2c(=O)[nH]1 [Pemetrexed] (partner 0.2 µM)
In short: as §1

RU-SKI 43 + Olaparib = compound: CC[C@@H](C)CNCC(=O)N1CCC2=C([C@@H]1COC3=CC=CC(=C3)C)C=CS2 [RU-SKI 43] + O=C(c1cc(Cc2n[nH]c(=O)c3ccccc23)ccc1F)N1CCN(C(=O)C2CC2)CC1 [Olaparib] (partner 8 µM)
In short: as §1

Irinotecan + Phenformin = compound: CCc1c2c(nc3ccc(OC(=O)N4CCC(N5CCCCC5)CC4)cc13)-c1cc3c(c(=O)n1C2)COC(=O)[C@]3(O)CC [Irinotecan] + N=C(N)NC(=N)NCCc1ccccc1 [Phenformin] (partner 250 µM)
In short: as §1

Cell Line | relative viability (Irinotecan + Olaparib; first compound 0.6325 µM) | relative viability (Irinotecan + Olaparib; first compound 2 µM) | relative viability (Irinotecan + Olaparib; first compound 6.325 µM) | relative viability (Irinotecan + Olaparib; first compound 20 µM) | relative viability (Irinotecan + Pemetrexed; first compound 0.6325 µM) | relative viability (Irinotecan + Pemetrexed; first compound 2 µM) | relative viability (Irinotecan + Pemetrexed; first compound 6.325 µM) | relative viability (Irinotecan + Pemetrexed; first compound 20 µM) | relative viability (RU-SKI 43 + Olaparib; first compound 0.1 µM) | relative viability (RU-SKI 43 + Olaparib; first compound 0.3162 µM) | relative viability (RU-SKI 43 + Olaparib; first compound 1 µM) | relative viability (RU-SKI 43 + Olaparib; first compound 3.162 µM) | relative viability (RU-SKI 43 + Olaparib; first compound 10 µM) | relative viability (Irinotecan + Phenformin; first compound 0.6325 µM) | relative viability (Irinotecan + Phenformin; first compound 2 µM) | relative viability (Irinotecan + Phenformin; first compound 6.325 µM) | relative viability (Irinotecan + Phenformin; first compound 20 µM)
NCI-H1915 | 0.151 | 0.186 | 0.144 | 0.115 | 0.352 | 0.349 | 0.187 | 0.132 | 0.266 | 0.288 | 0.25 | 0.261 | 0.251 | 0.268 | 0.27 | 0.2 | 0.195
H3255 | 0.464 | 0.446 | 0.343 | 0.362 | 0.529 | 0.603 | 0.393 | 0.37 | 0.579 | 0.594 | 0.572 | 0.574 | 0.529 | 0.343 | 0.337 | 0.344 | 0.331
BEN | 0.681 | 0.53 | 0.425 | 0.528 | 0.535 | 0.828 | 0.415 | 0.485 | 1.16 | 1.2 | 1.09 | 1.09 | 1.07 | 0.242 | 0.247 | 0.24 | 0.272
NCI-H23 | 0.245 | 0.254 | 0.207 | 0.2 | 0.484 | 0.597 | 0.268 | 0.256 | 0.28 | 0.263 | 0.292 | 0.326 | 0.279 | 0.586 | 0.647 | 0.221 | 0.252
NCI-H1944 | 0.287 | 0.221 | 0.198 | 0.182 | 0.553 | 0.516 | 0.284 | 0.175 | 0.391 | 0.417 | 0.413 | 0.433 | 0.386 | 0.191 | 0.187 | 0.132 | 0.132
NCI-H441 | 0.243 | 0.241 | 0.256 | 0.229 | 0.261 | 0.178 | 0.222 | 0.241 | 0.709 | 0.576 | 0.627 | 0.736 | 0.542 | 0.566 | 0.759 | 0.299 | 0.224
NCI-H1437 | 0.434 | 0.429 | 0.316 | 0.272 | 0.319 | 0.315 | 0.312 | 0.265 | 0.638 | 0.681 | 0.632 | 0.643 | 0.575 | 0.296 | 0.306 | 0.163 | 0.144
HARA | 0.466 | 0.405 | 0.2 | 0.262 | 0.211 | 0.294 | 0.182 | 0.192 | 0.822 | 0.735 | 0.754 | 0.894 | 0.923 | 0.351 | 0.157 | 0.11 | 0.113
LOU-NH91 | 0.712 | 0.477 | 0.321 | 0.153 | 0.392 | 0.402 | 0.338 | 0.182 | 0.908 | 0.94 | 0.973 | 0.926 | 0.879 | 0.617 | 0.639 | 0.377 | 0.391
COR-L 105 | 0.644 | 0.513 | 0.552 | 0.425 | 1.35 | 0.93 | 0.649 | 0.442 | 0.658 | 0.57 | 0.815 | 0.683 | 0.603 | 0.505 | 0.682 | 0.41 | 0.182
NCI-H838 | 0.632 | 0.441 | 0.238 | 0.18 | 0.232 | 0.25 | 0.24 | 0.25 | 0.842 | 0.798 | 0.806 | 0.798 | 0.738 | 0.661 | 0.587 | 0.312 | 0.202
NCI-H1975 | 0.797 | 0.935 | 0.323 | 0.193 | 0.268 | 0.311 | 0.252 | 0.173 | 0.752 | 1 | 0.892 | 0.729 | 0.767 | 0.407 | 0.448 | 0.296 | 0.194
SK-MES-1 | 0.364 | 0.293 | 0.325 | 0.255 | 0.839 | 0.808 | 0.312 | 0.142 | 0.643 | 0.775 | 0.762 | 0.737 | 0.702 | 0.582 | 0.51 | 0.264 | 0.191
NCI-H2170 | 0.173 | 0.184 | 0.121 | 0.102 | 0.277 | 0.245 | 0.238 | 0.151 | 0.587 | 0.683 | 0.599 | 0.61 | 0.59 | 0.389 | 0.424 | 0.202 | 0.174
NCI-H647 | 0.194 | 0.205 | 0.14 | 0.0986 | 0.165 | 0.154 | 0.153 | 0.105 | 0.584 | 0.821 | 0.512 | 0.695 | 0.628 | 0.463 | 0.644 | 0.161 | 0.104
A-427 | 0.718 | 0.551 | 0.271 | 0.104 | 0.884 | 1 | 0.396 | 0.229 | 0.707 | 0.759 | 0.68 | 0.752 | 0.626 |  | 0.21 | 0.173 | 0.184
HCC-366 | 0.206 | 0.15 | 0.0823 | 0.0649 | 0.15 | 0.192 | 0.0569 | 0.0611 | 0.307 | 0.464 | 0.314 | 0.424 | 0.31 | 0.495 | 0.371 | 0.0734 | 0.078
CAL-12T | 0.494 | 0.44 | 0.288 | 0.297 | 1.14 | 0.995 | 0.355 | 0.234 | 0.709 | 0.804 | 0.855 | 0.666 | 0.698 |  | 0.668 | 0.275 | 0.186
